The text below walks through data of patent publication US20070248540A1, “Biochemical methods for measuring metabolic fitness of tissues or whole organisms” (The Regents of the University of California, priority 2002, published 2007).

Series [1] in a line: Body ^2H2O enrichment (saliva samples) in subjects ingesting 70% ^2H2O over eight weeks. It is filed as in vivo. The following applies: individual human subjects; oral 70% ^2H2O, eight-week study; one value per subject (251498, 251515, 251598, 251748, 251771). As for the experimental part: The protocol for incorporation of ^2H into human mitochondrial DNA from muscle biopsy samples is illustrated in the experimental design of FIG. 3d. Five human subjects enrolled as out-patients ingested 70 ml of 70% ^2H2O three times a day for 5 days then twice a day for 5 days; then ingested 50 ml twice a day thereafter for the remainder of the eight-week study period. Every two weeks, subjects gave a saliva sample (for measurement of body ^2H2O enrichment). At week 8, an open muscle biopsy was performed under surgical conditions. Mitochondria were isolated from excised muscle tissue (1 g) by ultracentrifugation, using methods well known in the art. Isolation of mitochondrial (mt) DNA and phospholipids (PL) were by procedures well known in the art. Measurement of fractional synthesis of mt PL was as described in the general methods, supra and in Collins et al., supra. Measured ^2H-incorporation (EM1=excess abundance of M+1 mass isotopomer of the molecule) and fractional synthesis (f) of mt DNA and mt PL are shown in Table 1.

A short description of series [2]: Toxicity on long-term maintenance of ^2H2O body water enrichment in humans. It is filed as in vivo, human. The following applies: body water enrichment 1-10% (0.5%-15%) maintained for weeks or months; >100 people. The text has this: (§1) Relatively high body water enrichments of ^2H2O (e.g., 1-10% of the total body water is labeled) may be achieved using the techniques of the invention. Water enrichments of ^2H2O of 0.5%-15% may also be achieved using the techniques described herein. […] This finding in a large number of human subjects (>100 people) is contrary to previous concerns about vestibular toxicities at high doses of ^2H2O. Applicant has discovered that as long as rapid changes in body water enrichment are minimized (e.g., by initial administration in small, divided doses), high body water enrichments of ^2H2O can be maintained with a minimum toxicities. For example, the low expense of commercially available ^2H2O allows long-term maintenance of enrichments in the 1-5% range at relatively low expense (e.g., calculations reveal a lower cost for 2 months labeling at 2% ^2H2O enrichment, and thus 7-8% enrichment in the alanine precursor pool, than for 12 hours labeling of ^2H-leucine at 10% free leucine enrichment, and thus 7-8% enrichment in leucine precursor pool for that period).

For series [3] the following is noted: in vivo.
Description: as §1

Structures are written as SMILES. Several values for one entry are separate records, joined by “and”; a condition that tells them apart may be missing. Equal values may be shown once. Read-outs that look alike come from different tables or passages of the source.

`[2H]O[2H]` [^2H2O, deuterated water]: the “Body ^2H2O (%)” value in series [1] is 0.5% and 1.7% and 1.1% and 2.0% and 1.0%. Further, the evidence of toxicity entry in series [2] and in series [3] was “without any evidence of toxicity” throughout.
